US11498896B2 (The Broad Institute, Inc., priority 2014, dated 2022)
Where two headings read alike, the source gives them in different places.

What was measured:
[1] = Pharmacokinetic and brain distribution study in mice; type: in vivo; details: single intraperitoneal dose 30 mg/kg, male C57BL/6 mice
Method: Pharmacokinetic Studies on Mice Brains
Twelve male C57BL/6 mice were weighed and administered intraperitoneally with a dose of test compound (Examples 90, 157, 125) solution formulation. The dosing volume administered for the intraperitoneal route was at 10 mL/kg. Blood samples (approximately […]) were collected from retro-orbital plexus of each mouse under light isoflurane anesthesia at 0.08, 0.5, 1, 2, 4, and 8 hr. Following the collection of blood, plasma was also harvested by centrifugation and stored at −70° C. until analysis. After collection of plasma, the animals were euthanized and brain samples were isolated at 0.08, 0.5, 1, 2, 4, and 8 hr. Tissue samples (brain) were homogenized using ice-cold phosphate buffer saline (pH 7.4) and homogenates were stored below −70° C. until analysis. Total homogenate volume was three times the tissue weight. Concentrations of test compound in mouse plasma and brain samples were determined by LC-MS/MS method.
Identical extraction procedures were used for the plasma/brain homogenate study samples and the spiked plasma calibration standards: A 25 μL sample of either study sample (plasma/brain) or spiked calibration standard was added to individual pre-labeled micro-centrifuge tubes. A volume of 100 μL of IS (antipyrine, 500 ng/mL) prepared in acetonitrile was then added to the micro-centrifuge tubes, except in a sample used as a negative control where only acetonitrile was added and vortexed for 5 minutes. Samples were centrifuged for 20 minutes at the speed of 4000 rpm at 4° C. Following centrifugation, 100 μL of the supernatant was sampled from each centrifuge tube and transferred into insert vials. These vials remained within the auto-sampler for the LC/MS/MS analysis. Standards used for calibration were prepared by spiking 10 μL of the test compound in 190 μL of control (used as a negative control) mouse plasma/brain homogenate.
The plasma and brain concentration-time data of test compounds was provided for data analysis. The plasma and brain concentration-time data was then used for the pharmacokinetic analysis. Non-Compartmental-Analysis module in Phoenix® WinNonlin® (Version 6.3) was used to assess the pharmacokinetic parameters. Peak plasma concentrations (Cmax) and time for the peak plasma concentrations (Tmax) were the observed values. The areas under the concentration time curve (AUClast and AUCinf) were calculated by linear trapezoidal rule. The terminal elimination rate constant, ke was determined by regression analysis of the linear terminal portion of the log plasma concentration-time curve.
Illustrative results are presented in FIG. 2, the pharmacokinetic parameters are as follow: […]

[2] = system: D2R-mediated GSK3 signaling; test: D2R-mediated GSK3 signaling in HEK293T cells; type: cell-based; details: HEK293T cells expressing both D2R and DISC1; 10 μM and 30 μM
Text: Example 90 blocks β-arrestin signaling downstream of D2R and leads to modulation of GSK3 signaling.

Brain AUC ([1]; brain): 34.2 µM·h
Brain Cmax ([1]; brain): 7230 nM
half-life ([1]; mouse, ip, brain, read-out: Brain T1/2 (converted)): 4.2 h
AUC ([1]; mouse, ip, plasma): 4.4 µM·h
Cmax ([1]; mouse, ip, plasma): 1440 nM
half-life ([1]; mouse, ip, plasma, read-out: Plasma T1/2 (converted)): 4.7 h
SMILES: CC1(Oc2ccc(Cl)cc2)CCN(CCOc2ccccc2C(F)(F)F)CC1 [Compound 90, 4-(4-Chlorophenoxy)-4-methyl-1-(2-(2-(trifluoromethyl)phenoxy)ethyl) piperidine]
block of D2R activation-induced reduction of GSK3-α/β (Ser 21/9) phosphorylation [2]: blocked
